According to PubChem BioAssay (NCI):
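Interpolation was linear, between the two tested concentrations surrounding the appropriate level; five concentrations were tested over 48 hours in 96-well plates. TGI: total growth inhibition.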

Key:
Experiment in all cases: inhibition of tumour cell growth, NCI panel, 48 h
SK-MEL-2 melanoma = system: SK-MEL-2 melanoma
HCT-15 colon = system: HCT-15 colon
OVCAR-4 ovarian = system: OVCAR-4 ovarian
HCC-2998 colon = system: HCC-2998 colon
NCI-H226 lung = system: NCI-H226 lung
SF-268 CNS = system: SF-268 CNS
A498 renal = system: A498 renal
RXF 393 renal = system: RXF 393 renal
NCI/ADR-RES ovarian = system: NCI/ADR-RES ovarian
NCI-H23 lung = system: NCI-H23 lung
KM12 colon = system: KM12 colon
HOP-92 NSCLC = system: HOP-92 NSCLC
SK-OV-3 ovarian = system: SK-OV-3 ovarian
COLO 205 colon = system: COLO 205 colon
T-47D breast = system: T-47D breast
HT29 colon = system: HT29 colon
SNB-19 CNS = system: SNB-19 CNS
OVCAR-5 ovarian = system: OVCAR-5 ovarian
M14 melanoma = system: M14 melanoma
SK-MEL-5 melanoma = system: SK-MEL-5 melanoma
SR leukemia = system: SR leukemia
SK-MEL-28 melanoma = system: SK-MEL-28 melanoma
U251 CNS = system: U251 CNS
UACC-62 melanoma = system: UACC-62 melanoma
SF-539 CNS = system: SF-539 CNS
MDA-MB-231 breast = system: MDA-MB-231 breast
HCT-116 colon = system: HCT-116 colon
SW-620 colon = system: SW-620 colon
786-0 renal = system: 786-0 renal
TK-10 renal = system: TK-10 renal
CCRF-CEM leukemia = system: CCRF-CEM leukemia
MDA-MB-435 = system: MDA-MB-435
SF-295 CNS = system: SF-295 CNS
OVCAR-8 ovarian = system: OVCAR-8 ovarian
ACHN renal = system: ACHN renal
SNB-75 CNS = system: SNB-75 CNS
OVCAR-3 ovarian = system: OVCAR-3 ovarian
SN12C renal = system: SN12C renal
EKVX NSCLC = system: EKVX NSCLC
HOP-62 NSCLC = system: HOP-62 NSCLC
PC-3 prostate = system: PC-3 prostate
CAKI-1 renal = system: CAKI-1 renal
UACC-257 melanoma = system: UACC-257 melanoma
LOX IMVI melanoma = system: LOX IMVI melanoma
DU-145 prostate = system: DU-145 prostate
A549 NSCLC = system: A549 NSCLC
IGROV1 ovarian = system: IGROV1 ovarian
RPMI-8226 leukemia = system: RPMI-8226 leukemia
UO-31 renal = system: UO-31 renal
HS 578T breast = system: HS 578T breast
K-562 leukemia = system: K-562 leukemia
NCI-H522 lung = system: NCI-H522 lung
HL-60(TB) leukemia = system: HL-60(TB) leukemia
MCF7 breast = system: MCF7 breast

Measured: TGI

O=C1CC(c2ccccc2)n2cccc21 (centres undefined)
> 100 µM: all assays above
